This is an account of results in patent US20240293439A1, “TREATMENT REGIMENS” (NuCana plc, priority 2017, published 2024).

For data set [1] the following is noted: in vivo.
Procedure: The patients received NUC-3373, administered as a 30-minute to 2 hour intravenous injection on days 1, 8, 15 and 22 of a 28-day cycle regimen.
The cohorts treated to date received 125 mg/m^2, 250 mg/m^2, 500 mg/m^2 or 750 mg/m^2 NUC-3373 per administration.
Pharmacokinetic analysis of blood samples of the patients was then carried out.
Blood samples were collected on days 1 and 15 of a treatment cycle:
The blood samples should arrive in the lab within 2 hours of collection. Collect 8 ml of blood into CPT tubes (blood tubes should be centrifuged within 2 hours of blood collection). Remix the blood sample immediately prior to centrifugation by gently inverting the tube 8 to 10 times. Set centrifuge so that the start and finish is set to a slow acceleration (without break). Centrifuge at 18° C. for 20 minutes at 1,500 g. Remove sample from the centrifuge carefully. This will result in five layers: plasma (first); whitish cell (PBMC) layer [second]; polyester gel [third]; density solution [fourth] and, remaining granulocytes and RBCs [fifth]. Aspirate approximately half of the plasma without disturbing the cell layer. Collect the PBMC layer with a Pasteur Pipette and transfer to a 50 ml tube and add cold PBS (4° C.) to a final volume of 40 ml. Divide between two 50 ml tubes (20 ml per tube) and centrifuge for 5 minutes at 4° C. at 1,500 g. […]
Data set [2] in a line: NuTide:301 Phase 1 study: pharmacokinetic analysis of NUC-3373 in blood plasma. Type of data set: in vivo. Conditions: human, iv, patients with advanced solid tumors, 125-750 mg/m^2, 1:1 mixture of S and R epimers. As to the method:
(§1) All patients have metastatic spread.
NUC-3373 is presented as a single dose intravenous injection in a clear vial containing 250 mg/ml NUC-3373 in a solution of dimethylacetamide (DMA) and normal saline in the ratio of 80:20. The product is a clear yellow solution, free from visible particles.
In the study all patients were treated with a 1:1 mixture of NUC-3373 S and R epimers.
Centrifuge the 4 ml blood sample at 1,200 g at 18° C. for 10 minutes. Using a sterile plastic pipette (pastette), remove the resulting plasma and transfer ˜1.0 ml plasma into each of 2 cryovials (2 ml).

The nature of data set [3]: NuTide:301 clinical trial: occurrence of hand-foot syndrome. In kind it is in vivo. To be noted: 36 patients treated with NUC-3373, so far.
From the text: as §1

Data set [4] is described as follows: NuTide:301 study: detection of toxic byproducts FBAL and dhFU by UPLC-MS/MS after NUC-3373 administration. Type of data set: in vivo, patients. To be noted: at the doses studied. As to the method:
as §1
(§2) Vortex-mix for 30 seconds. Leave sample on ice for 15 minutes.
UPLC-MS/MS was used to detect dhFU and FBAL

The subject of data set [5] is thymidylate synthase (TS). Put plainly: Intracellular dTMP, TS and dUMP levels in PBMCs of treated subjects (UPLC-MS, Western blot). In kind it is in vivo, patients. Conditions: for intracellular TS level and/or activity / intracellular dTMP level: cells (PBMCs) of treated subjects. As for the experimental part: Remove sample from the centrifuge carefully.
as §2
UPLC-MS for was used to detect dTMP Western blot was used to detect TS.
A general note: A western blot detects proteins with antibodies after separation by electrophoresis.

The conditions of data set [6]: formal dog toxicology studies; cited from earlier work.
The conditions of data set [7]: patients treated with 5FU; cited from earlier work.
Data set [8] addresses T1, dihydropyrimidine dehydrogenase (DPD) (Homo sapiens, UniProt Q12882).
T1 construct: This is balanced by catabolism by dihydropyrimidine dehydrogenase (DPD) in the liver; host or cells: liver (of patients)
T1 sequence (Q12882 4-1025): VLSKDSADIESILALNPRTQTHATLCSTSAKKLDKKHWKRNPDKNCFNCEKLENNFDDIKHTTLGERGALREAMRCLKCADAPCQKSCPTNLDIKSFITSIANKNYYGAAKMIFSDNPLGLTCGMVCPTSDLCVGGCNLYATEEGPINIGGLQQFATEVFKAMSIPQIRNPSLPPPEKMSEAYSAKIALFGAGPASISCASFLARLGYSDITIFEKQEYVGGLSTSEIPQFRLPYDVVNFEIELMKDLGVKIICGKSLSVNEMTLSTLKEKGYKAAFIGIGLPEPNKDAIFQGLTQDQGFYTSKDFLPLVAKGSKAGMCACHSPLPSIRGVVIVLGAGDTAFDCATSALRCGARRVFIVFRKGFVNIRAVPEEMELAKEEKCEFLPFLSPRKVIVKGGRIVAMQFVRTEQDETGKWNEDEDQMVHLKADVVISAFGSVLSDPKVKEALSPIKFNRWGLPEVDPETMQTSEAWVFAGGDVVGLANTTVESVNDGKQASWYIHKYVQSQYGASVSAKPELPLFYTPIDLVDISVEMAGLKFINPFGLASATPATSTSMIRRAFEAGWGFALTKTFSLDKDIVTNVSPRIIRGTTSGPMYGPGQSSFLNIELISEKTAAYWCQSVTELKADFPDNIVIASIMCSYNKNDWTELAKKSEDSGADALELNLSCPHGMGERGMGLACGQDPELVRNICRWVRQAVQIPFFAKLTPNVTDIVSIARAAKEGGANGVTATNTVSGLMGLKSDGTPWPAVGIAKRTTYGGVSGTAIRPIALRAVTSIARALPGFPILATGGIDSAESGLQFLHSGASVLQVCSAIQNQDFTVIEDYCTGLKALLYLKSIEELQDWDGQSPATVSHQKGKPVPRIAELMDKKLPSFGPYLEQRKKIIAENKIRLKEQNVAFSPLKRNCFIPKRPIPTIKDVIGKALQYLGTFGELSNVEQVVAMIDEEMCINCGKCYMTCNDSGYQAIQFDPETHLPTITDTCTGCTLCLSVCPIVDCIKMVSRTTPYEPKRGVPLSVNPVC
To be noted: catabolism in the liver; cited from earlier work.

The conditions of data set [9]: comparison value; cited from earlier work.

Several values for one entry are separate records, joined by “and”; a condition that tells them apart may be missing. Equal entries are not always repeated. Entries after “also recorded” stand apart in the source; their conditions may differ.

Regarding `O=c1[nH]c(=O)n([C@H]2C[C@H](O)[C@@H](COP(=O)(O)O)O2)cc1F` [FUDR monophosphate], the “half-life of intracellular FUDR monophosphate” value in data set [1] (human) came to 14.9 h. The “detectability of intracellular FUDR monophosphate at late time point” value in data set [1] is on record as “still detectable”.

For the molecule `C[C@H](NP(=O)(OC[C@H]1O[C@@H](n2cc(F)c(=O)[nH]c2=O)CC1O)Oc1cccc2ccccc12)C(=O)OCc1ccccc1` (stereo partly drawn) [NUC-3373, 5-fluoro-2′-deoxyuridine-5′-O-[1-naphthyl (benzoxy-L-alaninyl)] phosphate], in data set [2], the half-life is 9.7 h. Further, the “patients who developed hand-foot syndrome” value in [3] is recorded as “none”. In data set [4], the “dihydrofluorouracil (dhFU) detected following NUC-3373 administration” value is on record as “undetectable” and the “α-fluoro-β-alanine (FBAL) detected following NUC-3373 administration” value is “undetectable; also recorded: very low levels”. In data set [5], the “intracellular TS level and/or activity” value was “deplete” and the “intracellular dTMP level” value is “deplete”. Further, the “intracellular dUMP level” value in data set [5] (cells of treated subjects) is “increased accumulation”. The “tolerability compared with 5FU” value in [6] is recorded as “significantly better tolerated than 5FU”.

Consider `O=c1[nH]cc(F)c(=O)[nH]1` [5FU, 5-fluorouracil], for which, in data set [7], the “patients developing hand-foot syndrome” value was 30-60% and 40-60%. The “fraction of 5-fluorouracil broken down by DPD” value in data set [8] is “More than 85%”. Besides, the “plasma half-life of 5FU” value in data set [9] was 8 to 14 min. In data set [5], the “intracellular TS level and/or activity” value is listed as “not observed” and the “intracellular dTMP level” value is listed as “not observed”.

For orientation: half-life means how long it takes for the measured level to halve.
